{
  "source": "patent US6521265B1",
  "about": "“Method for applying a blood clotting agent” (Biolife, L.L.C., priority 2000, dated 2003)",
  "system": "blood flowing from an open wound",
  "experiment": "Potassium ferrate used on blood flowing from an open wound",
  "settings": "in vivo",
  "excerpt": "The apparent chemical ferrate reaction with water found in blood is as follows:\nAs provided by the above compounds, a method of arresting blood and body fluid flow from an open skin wound is provided. An effective amount of any of the above salt ferrates, and preferably potassium ferrate in powder form, is applied directly onto the wound to interact with flowing blood or body fluid to accelerate its clotting.",
  "data": [
    {"substance": "potassium ferrate", "values": [
      {"measurement": "clotting of blood flowing from an open wound", "value": "effectively accomplishes the accelerated clotting of blood"}
    ]}
  ]
}
